Read-outs that look alike come from different tables or passages of the source.
How the values were obtained:
A2780 cells = assay: MTT antiproliferative assay, A2780; type: cell-based, human; settings: for inhibition at 10 µM / inhibition at 30 µM: read-out: Inhibition (%) ± SEM; for IC50: read-out: calculated IC50
Method: (§1) The antiproliferative properties of the newly synthesised triazoles (11a,b–15a,b) were determined on a panel of human adherent cancer cell lines of gynaecological origin. MCF-7 and MDA-MB-231 were isolated from breast cancers differing in biochemical background, while A2780 cells were isolated from ovarian cancer. The cancer selectivity of compound 12a was tested on the non-cancerous mouse embryo fibroblast cell line NIH/3T3. All cell lines were purchased from European Collection of Cell Cultures (ECCAC, Salisbury, UK). Cells were cultivated in minimal essential medium supplemented with 10% foetal bovine serum, 1% non-essential amino acids and an antibiotic–antimycotic mixture. All media and supplements were obtained from Lonza Group Ltd., Basel, Switzerland. Near-confluent cancer cells were seeded onto a 96-well microplate (5000 cells/well) and, after overnight standing, 200 µL new medium, containing the tested compounds at 10 and 30 µM, was added. After incubation for 72 h at 37 °C in humidified air containing 5% CO2, the living cells were assayed by the addition of 20 µL of 5 mg/ml 3-(4,5-dimethylthiazol-2-yl)-2,5-diphenyltetrazolium bromide (MTT) solution. MTT was converted by intact mitochondrial reductase and precipitated as purple crystals during a 4-h contact period. The medium was next removed and the precipitated formazan crystals were dissolved in 100 µL of DMSO during a 60-min period of shaking at 37 ^оC.
(§2) Finally, the reduced MTT was assayed at 545 nm, using a microplate reader utilising wells with untreated cells serving as control. […] All in vitro experiments were carried out on two microplates with at least five parallel wells. Stock solutions of the tested substances (10 mM) were prepared in DMSO. […] Cisplatin (Ebewe Pharma GmbH, Unterach, Austria) was used as positive control.

MDA-MB-231 cells = assay: MTT antiproliferative assay, MDA-MB-231; type: cell-based, human; settings: for inhibition at 10 µM / inhibition at 30 µM: read-out: Inhibition (%) ± SEM; for IC50: read-out: calculated IC50
Method: as §1, §2

MCF-7 cells = assay: MTT antiproliferative assay, MCF-7; type: cell-based, human; settings: for inhibition at 10 µM / inhibition at 30 µM: read-out: Inhibition (%) ± SEM; for IC50: read-out: calculated IC50
Method: as §1, §2

tubulin = assay: cell-free in vitro tubulin polymerisation assay; type: biochemical; settings: 10 µM paclitaxel, positive control, vs untreated control
Method: The effect of brominated triazole (12a) on tubulin polymerisation was tested with the HTS-Tubulin Polymerisation Assay Biochem Kit (Bio-Kasztel Ltd., Budapest, Hungary) according to the manufacturer’s recommendations. Briefly, 10 µl of a 0.125 or 0.25 mM solution of the test compound (12a) was placed on a prewarmed (37 °C), UV-transparent microplate. About 10 µl 10 µM paclitaxel and 10 µl General Tubulin Buffer were used as positive and negative control, respectively. 100 µl 3.0 mg/ml tubulin in 80 mM PIPES pH 6.9, 2 mM MgCl2, 0.5 mM EGTA, 1 mM GTP was added to each sample, and the microplate was immediately placed into a prewarmed (37 °C) UV-spectrophotometer (SpectoStarNano, BMG Labtech, Ortenberg, Germany) to start the recording reaction. A 60-min kinetic measurement protocol was applied to determine the absorbance of the reaction solution per minute at 340 nm. For the evaluation of the experimental data, the maximum reaction rate (Vmax: Δabsorbance/min) was calculated. Moving averages of absorbances determined at three consecutive timepoints were calculated and the highest difference between two succeeding moving averages was taken as the Vmax of the tested compound in the tubulin polymerisation reaction. Each sample was prepared in two parallels and the measurements were repeated twice. For statistical evaluation, Vmax data were analysed by the one-way ANOVA test with the Newmann–Keuls post-test by using Prism 4.01 software (GraphPad Software, San Diego, CA).

[1] = Homo sapiens, A2780, 10 µM, 72 h, MTT
[2] = Homo sapiens, A2780, 30 µM, 72 h, MTT
[3] = Homo sapiens, MDA-MB-231, 10 µM, 72 h, MTT
[4] = Homo sapiens, MDA-MB-231, 30 µM, 72 h, MTT
[5] = Homo sapiens, MCF7, MCF-7, 10 µM, 72 h, MTT
[6] = Homo sapiens, MCF7, MCF-7, 30 µM, 72 h, MTT

Row | SMILES | inhibition at 10 µM (A2780 cells; Homo sapiens, A2780, 72 h) [%] | inhibition at 30 µM (A2780 cells; Homo sapiens, A2780, 72 h) [%] | IC50 (A2780 cells; Homo sapiens, A2780, 72 h) [µM] | inhibition at 10 µM (MDA-MB-231 cells; Homo sapiens, MDA-MB-231, 72 h) [%] | inhibition at 30 µM (MDA-MB-231 cells; Homo sapiens, MDA-MB-231, 72 h) [%] | IC50 (MDA-MB-231 cells; Homo sapiens, MDA-MB-231, 72 h) [µM] | inhibition at 10 µM (MCF-7 cells; Homo sapiens, MCF7, 72 h) [%] | inhibition at 30 µM (MCF-7 cells; Homo sapiens, MCF7, 72 h) [%] | IC50 (MCF-7 cells; Homo sapiens, MCF7, 72 h) [µM] | melting point [°C] | also measured
1 | C[C@@]12CC[C@@H]3c4cc(Br)c(OCc5cn(Cc6ccccc6)nn5)cc4CC[C@H]3[C@@H]1CCC2=O [Compound 11a, 3-[{1-benzyl-1H-1,2,3-triazol-4-yl}methoxy]-2-bromo-13α-estra-1,3,5(10)-trien-17-one] | – | – | – | – | – | – | – | – | – | – | inhibition at 10 µM (A2780 cells; [1]): 44.87 ± 0.09%; inhibition at 30 µM (A2780 cells; [2]): 52 ± 0.8%; IC50 (A2780 cells; Homo sapiens, A2780, 72 h, MTT): 21.5 µM; inhibition at 10 µM (MDA-MB-231 cells; [3]): 47.5 ± 1.21%; inhibition at 30 µM (MDA-MB-231 cells; [4]): 38.2 ± 2.78%; inhibition at 10 µM (MCF-7 cells; [5]): 29.1 ± 1.42%; inhibition at 30 µM (MCF-7 cells; [6]): 36.5 ± 1.22%
2 | CC(C)(C)c1ccc(Cn2cc(COc3cc4c(cc3Br)[C@H]3CC[C@@]5(C)C(=O)CC[C@H]5[C@@H]3CC4)nn2)cc1 [Compound 11b, 2-bromo-3-[{1–(4-tert-butylbenzyl)-1H-1,2,3-triazol-4-yl}methoxy]-13α-estra-1,3,5(10)-trien-17-one] | – | – | – | – | – | – | – | – | – | – | inhibition at 10 µM (A2780 cells; [1]): 30.2 ± 2.35%; inhibition at 30 µM (A2780 cells; [2]): 33.9 ± 2.7%; inhibition at 10 µM (MDA-MB-231 cells; [3]): 24.4 ± 2.2%; inhibition at 30 µM (MDA-MB-231 cells; [4]): 23.9 ± 1.07%; inhibition at 10 µM (MCF-7 cells; [5]): < 20%; inhibition at 30 µM (MCF-7 cells; [6]): < 20%
3 | C[C@@]12CC[C@@H]3c4cc(P(=O)(c5ccccc5)c5ccccc5)c(OCc5cn(Cc6ccccc6)nn5)cc4CC[C@H]3[C@@H]1CCC2=O [Compound 14a, (3-[{1-benzyl-1H-1,2,3-triazol-4-yl}methoxy]-13α-estra-1,3,5(10)-trien-17-on-2-yl)diphenylphosphine oxide] | 96 ± 1.28 | 98.06 ± 0.89 | 4.87 | 82 ± 2.49 | 98.52 ± 0.1 | 7.13 | 66.9 ± 1.46 | 92.5 ± 1.08 | 8.38 | 117 to 120 | –
4 | CC(=O)O[C@H]1C(=O)[C@@]2(C)[C@H]([C@H](OC(=O)c3ccccc3)[C@]3(O)C[C@H](OC(=O)[C@H](O)[C@@H](NC(=O)c4ccccc4)c4ccccc4)C(C)=C1C3(C)C)[C@]1(OC(C)=O)CO[C@@H]1C[C@@H]2O [Paclitaxel, reference compound] | – | – | – | – | – | – | – | – | – | – | increase in Vmax (tubulin): threefold increase in Vmax
5 | N.N.[Cl][Pt][Cl] [Cisplatin, reference compound] | – | – | – | – | – | – | – | – | – | – | Inhibition (%) ± SEM (A2780 cells; A2780, 10 µM, 72 h, MTT): 83.57 ± 1.21%; Inhibition (%) ± SEM (A2780 cells; A2780, 30 µM, 72 h, MTT): 95.02 ± 0.28%; IC50 (A2780 cells; A2780, 72 h, MTT): 1.3 µM; Inhibition (%) ± SEM (MDA-MB-231 cells; MDA-MB-231, 10 µM, 72 h, MTT): 67.51 ± 1.01%; Inhibition (%) ± SEM (MDA-MB-231 cells; MDA-MB-231, 30 µM, 72 h, MTT): 87.75 ± 1.10%; IC50 (MDA-MB-231 cells; MDA-MB-231, 72 h, MTT): 3.7 µM; Inhibition (%) ± SEM (MCF-7 cells; MCF-7, 10 µM, 72 h, MTT): 53.03 ± 2.29%; Inhibition (%) ± SEM (MCF-7 cells; MCF-7, 30 µM, 72 h, MTT): 86.90 ± 1.24%; IC50 (MCF-7 cells; MCF-7, 72 h, MTT): 5.78 µM
6 | CCOP(=O)(OCC)c1c(OCc2cn(Cc3ccc(C(C)(C)C)cc3)nn2)ccc2c1CC[C@@H]1[C@@H]2CC[C@@]2(C)C(=O)CC[C@@H]12 [Compound 15b, (3-[{1–(4-tert-butylbenzyl)-1H-1,2,3-triazol-4-yl}methoxy]-13α-estra-1,3,5(10)-trien-17-on-4-yl)-diethylphosphonate] | 46.2 ± 1.27 | 92.05 ± 0.86 | 9.96 | < 20 | 34.8 ± 2.2 | – | 30.1 ± 1.53 | 77.5 ± 1.56 | – | 54 to 59 | –
7 | CCOP(=O)(OCC)c1c(OCc2cn(Cc3ccccc3)nn2)ccc2c1CC[C@@H]1[C@@H]2CC[C@@]2(C)C(=O)CC[C@@H]12 [Compound 15a, (3-[{1-benzyl-1H-1,2,3-triazol-4-yl}methoxy]-13α-estra-1,3,5(10)-trien-17-on-4-yl)-diethylphosphonate] | 79.9 ± 1.08 | 99.5 ± 0.03 | 5.91 | 25.7 ± 1.76 | 96.87 ± 0.28 | 13.2 | 42.4 ± 2.94 | 91 ± 1.49 | 11.4 | 43 to 45 | –
8 | CCOP(=O)(OCC)c1cc2c(cc1OCc1cn(Cc3ccc(C(C)(C)C)cc3)nn1)CC[C@@H]1[C@@H]2CC[C@@]2(C)C(=O)CC[C@@H]12 [Compound 13b, (3-[{1–(4-tert-butylbenzyl)-1H-1,2,3-triazol-4-yl}methoxy]-13α-estra-1,3,5(10)-trien-17-on-2-yl)-diethylphosphonate] | 95.61 ± 0.59 | 99.73 ± 0.21 | 2.95 | 57 ± 2.58 | 98.93 ± 0.2 | 9.51 | 74 ± 1.88 | 95.52 ± 0.23 | 6.59 | – | –
9 | CC(C)(C)c1ccc(Cn2cc(COc3ccc4c(c3Br)CC[C@@H]3[C@@H]4CC[C@@]4(C)C(=O)CC[C@@H]34)nn2)cc1 [Compound 12b, 4-bromo-3-[{1–(4-tert-butylbenzyl)-1H-1,2,3-triazol-4-yl}methoxy]-13α-estra-1,3,5(10)-trien-17-one] | – | – | – | – | – | – | – | – | – | – | inhibition at 10 µM (A2780 cells; [1]): 46.9 ± 1.75%; inhibition at 30 µM (A2780 cells; [2]): 54.7 ± 0.7%; IC50 (A2780 cells; Homo sapiens, A2780, 72 h, MTT): 18.3 µM; inhibition at 10 µM (MDA-MB-231 cells; [3]): < 20%; inhibition at 30 µM (MDA-MB-231 cells; [4]): < 20%; inhibition at 10 µM (MCF-7 cells; [5]): 23.5 ± 1.03%; inhibition at 30 µM (MCF-7 cells; [6]): 29.2 ± 2.94%
10 | CC(C)(C)c1ccc(Cn2cc(COc3cc4c(cc3P(=O)(c3ccccc3)c3ccccc3)[C@H]3CC[C@@]5(C)C(=O)CC[C@H]5[C@@H]3CC4)nn2)cc1 [Compound 14b, (3-[{1–(4-tert-butylbenzyl)-1H-1,2,3-triazol-4-yl}methoxy]-13α-estra-1,3,5(10)-trien-17-on-2-yl)diphenylphosphine oxide] | 85.52 ± 0.64 | 95.82 ± 0.12 | 5.07 | 46.6 ± 1.21 | 71.3 ± 1.23 | 13.6 | 77.87 ± 0.66 | 90.69 ± 0.18 | 7.16 | 205 to 208 | –
11 | CCOP(=O)(OCC)c1cc2c(cc1OCc1cn(Cc3ccccc3)nn1)CC[C@@H]1[C@@H]2CC[C@@]2(C)C(=O)CC[C@@H]12 [Compound 13a, (3-[{1-benzyl-1H-1,2,3-triazol-4-yl}methoxy]-13α-estra-1,3,5(10)-trien-17-on-2-yl)-diethylphosphonate] | 29.5 ± 1.86 | 90.85 ± 0.4 | 13.5 | < 20 | 36 ± 3.17 | – | < 20 | 43.5 ± 2.63 | – | 75 to 80 | –
